Tests used:
[1] = biological target: T1, G12D-mutant human KRAS (amino acid residues 1-188) (Homo sapiens, UniProt P01116, G12D); experiment: KRAS Binding Disruption Assay (AlphaScreen; biotinylated KRpep-2d analogue or RAF1-RBD), G12D; details: KRAS G12D; geometric mean; read-out: KRAS GMean IC50 (uM) MUTATION: G12D
T1 construct: G12D or G12C-mutant human KRAS (amino acid residues 1-188) with FLAG tag; made in house; host or cells: E. coli
In short: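 AlphaScreen readout: signal falls as compound displaces biotinylated KRpep-2d analogue or RAF1-RBD from mutant KRAS. Both partners at 5-20 nM, 1 h binding at 25° C, then 10 μg/mL Anti-Flag acceptor and streptavidin donor beads for 1 h. IC50 by nonlinear regression of % inhibition.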

[2] = biological target: T2, G12V-mutant human KRAS (amino acid residues 1-188) (Homo sapiens, UniProt P01116, G12V); experiment: KRAS Binding Competition Assay (AlphaScreen; biotinylated KRpep-2d analogue), G12V; details: geometric mean, read-out: KRAS GMean IC50 (uM) MUTATION: G12V
T2 construct: G12V-mutant human KRAS (amino acid residues 1-188) with FLAG tag was purified from E. coli; made in house; host or cells: E. coli

SMILES | IC50 [1] | IC50 [2]
CN1CCC[C@H]1COc1nc(N2CC3CCC(C2)N3)c2ccc(-c3cc(Cl)cn4ccnc34)cc2n1 [P-0235] | 10 to 100 µM | 10 to 100 µM
CN1CC(=O)N(Cc2nc(N3C[C@H]4CC[C@@H](C3)N4)c3cc(Cl)c(-c4c(O)cccc4F)c(F)c3n2)C1=O [P-0460, 3-((4-((1R,5S)-3,8-diazabicyclo[3.2.1]octan-3-yl)-6-chloro-8-fluoro-7-(2-fluoro-6-hydroxyphenyl)quinazolin-2-yl)methyl)-1-methylimidazolidine-2,4-dione] | 10 to 100 µM | 10 to 100 µM
CN1CCC[C@H]1COc1nc(N2[C@@H]3CC[C@H]2CN(C(=O)C(O)CO)C3)c2ccc(-c3cc(O)cc4ccccc34)cc2n1 (stereo partly drawn) [P-0219, 2,3-dihydroxy-1-((1R,5S)-8-(7-(3-hydroxynaphthalen-1-yl)-2-(((S)-1-methylpyrrolidin-2-yl)methoxy)quinazolin-4-yl)-3,8-diazabicyclo[3.2.1]octan-3-yl)propan-1-one] | 10 to 100 µM | 10 to 100 µM
CN1CCC[C@H]1COc1nc(N2[C@@H]3CC[C@H]2CN(CC(=O)N2CC(O)C2)C3)c2ccc(-c3cc(O)cc4ccccc34)cc2n1 [P-0275, 1-(3-hydroxyazetidin-1-yl)-2-((1R,5S)-8-(7-(3-hydroxynaphthalen-1-yl)-2-(((S)-1-methylpyrrolidin-2-yl)methoxy)quinazolin-4-yl)-3,8-diazabicyclo[3.2.1]octan-3-yl)ethan-1-one] | 10 to 100 µM | 10 to 100 µM
CN1CCC[C@H]1COc1nc(N2[C@@H]3CC[C@H]2CNC3)c2ccc(-c3cccc(C(N)=O)n3)cc2n1 [P-0148, 6-(4-((1R,5S)-3,8-diazabicyclo[3.2.1]octan-8-yl)-2-(((S)-1-methylpyrrolidin-2-yl)methoxy)quinazolin-7-yl)picolinamide] | 100 to 1000 µM | 10 to 100 µM
CN1CCC[C@H]1COc1nc(N2C[C@H]3CC[C@@H](C2)N3)c2ccc(-c3c(F)ccc4[nH]ccc34)cc2n1 [P-0184, 4-((1R,5S)-3,8-diazabicyclo[3.2.1]octan-3-yl)-7-(5-fluoro-1H-indol-4-yl)-2-(((S)-1-methylpyrrolidin-2-yl)methoxy)quinazoline] | 10 to 100 µM | 100 to 1000 µM
CN1CCc2ccc(Oc3nc(N4[C@@H]5CC[C@H]4CNC5)c4ccc(-c5cc(O)cc6ccccc56)cc4n3)cc2C1 [P-0237, 4-(4-((1R,5S)-3,8-diazabicyclo[3.2.1]octan-8-yl)-2-((2-methyl-1,2,3,4-tetrahydroisoquinolin-7-yl)oxy)quinazolin-7-yl)naphthalen-2-ol] | 10 to 100 µM | 10 to 100 µM
CN1CCC[C@H]1COc1nc(N2[C@@H]3CC[C@H]2CN(C(=O)CC#N)C3)c2ccc(-c3cc(O)cc4ccccc34)cc2n1 [P-0325, 3-((1R,5S)-8-(7-(3-hydroxynaphthalen-1-yl)-2-(((S)-1-methylpyrrolidin-2-yl)methoxy)quinazolin-4-yl)-3,8-diazabicyclo[3.2.1]octan-3-yl)-3-oxopropanenitrile] | 10 to 100 µM | 0.0001 to 10 µM

Results, then the compound that gave them:

IC50 [1] | IC50 [2] | SMILES
0.0001 to 10 µM | 10 to 100 µM | CN1CCC[C@H]1COc1nc(N2C[C@H]3CC[C@@H](C2)N3)c2cc(Cl)c(-c3c[nH]c4ccc(Cl)cc34)c(F)c2n1 [P-0323, 4-((1R,5S)-3,8-diazabicyclo[3.2.1]octan-3-yl)-6-chloro-7-(5-chloro-1H-indol-3-yl)-8-fluoro-2-(((S)-1-methylpyrrolidin-2-yl)methoxy)quinazoline]
10 to 100 µM | 10 to 100 µM | C[C@H](O)C(=O)N1C[C@H]2CC[C@@H](C1)N2c1nc(OC[C@@H]2CCCN2C)nc2cc(-c3cc(O)cc4ccccc34)ccc12 [P-0221, (S)-2-hydroxy-1-((1R,5S)-8-(7-(3-hydroxynaphthalen-1-yl)-2-(((S)-1-methylpyrrolidin-2-yl)methoxy)quinazolin-4-yl)-3,8-diazabicyclo[3.2.1]octan-3-yl)propan-1-one]
0.0001 to 10 µM | 10 to 100 µM | CN1CCC[C@H]1COc1nc(N2[C@@H]3CC[C@H]2CNC3)c2ccc(-c3cc(O)cc4ccccc34)cc2n1 [P-0336, 4-(4-((1R,5S)-3,8-diazabicyclo[3.2.1]octan-8-yl)-2-(((S)-1-methylpyrrolidin-2-yl)methoxy)quinazolin-7-yl)naphthalen-2-ol]
10 to 100 µM | 10 to 100 µM | COC(=N)CC(=O)N1[C@@H]2CC[C@H]1CN(c1nc(OC[C@@H]3CCCN3C)nc3c(F)c(-c4cc(O)cc5ccccc45)c(Cl)cc13)C2 [P-0450, methyl 3-((1R,5S)-3-(6-chloro-8-fluoro-7-(3-hydroxynaphthalen-1-yl)-2-(((S)-1-methylpyrrolidin-2-yl)methoxy)quinazolin-4-yl)-3,8-diazabicyclo[3.2.1]octan-8-yl)-3-oxopropanimidate]
0.0001 to 10 µM | 0.0001 to 10 µM | Nc1ccc(CCc2nc(N3[C@@H]4CC[C@H]3CNC4)c3ccc(-c4cc(O)cc5ccccc45)cc3n2)cc1 [P-0243, 4-(2-(4-aminophenethyl)-4-((1R,5S)-3,8-diazabicyclo[3.2.1]octan-8-yl)quinazolin-7-yl)naphthalen-2-ol]
0.0001 to 10 µM | 0.0001 to 10 µM | CN1CCC[C@H]1COc1nc(N2C[C@H]3CC[C@@H](C2)N3C(=O)CC2SC(=O)NC2=O)c2cc(Cl)c(-c3cc(O)cc4ccccc34)c(F)c2n1 (stereo partly drawn) [P-0447, 5-(2-((1R,5S)-3-(6-chloro-8-fluoro-7-(3-hydroxynaphthalen-1-yl)-2-(((S)-1-methylpyrrolidin-2-yl)methoxy)quinazolin-4-yl)-3,8-diazabicyclo[3.2.1]octan-8-yl)-2-oxoethyl)thiazolidine-2,4-dione]
10 to 100 µM | 10 to 100 µM | CN1CCC[C@H]1COc1nc(N2[C@@H]3CC[C@H]2CN(C(=O)CCCN2CCOCC2)C3)c2ccc(-c3cc(O)cc4ccccc34)cc2n1 [P-0267, 1-((1R,5S)-8-(7-(3-hydroxynaphthalen-1-yl)-2-(((S)-1-methylpyrrolidin-2-yl)methoxy)quinazolin-4-yl)-3,8-diazabicyclo[3.2.1]octan-3-yl)-4-morpholinobutan-1-one]
0.0001 to 10 µM | 10 to 100 µM | CN1C(=O)C(CC(=O)N2[C@@H]3CC[C@H]2CN(c2nc(OC[C@@H]4CCCN4C)nc4cc(-c5cc(O)cc6ccccc56)ccc24)C3)N(C)C1=O (stereo partly drawn) [P-0369, 5-(2-((1R,5S)-3-(7-(3-hydroxynaphthalen-1-yl)-2-(((S)-1-methylpyrrolidin-2-yl)methoxy)quinazolin-4-yl)-3,8-diazabicyclo[3.2.1]octan-8-yl)-2-oxoethyl)-1,3-dimethylimidazolidine-2,4-dione]
0.0001 to 10 µM | 10 to 100 µM | Cc1cccc2cccc(-c3ccc4c(N5C[C@H]6CC[C@@H](C5)N6)nc(OC[C@@H]5CCCN5C)nc4c3F)c12 [P-0465, 4-((1R,5S)-3,8-diazabicyclo[3.2.1]octan-3-yl)-8-fluoro-7-(8-methylnaphthalen-1-yl)-2-(((S)-1-methylpyrrolidin-2-yl)methoxy)quinazoline]
0.0001 to 10 µM | 100 to 1000 µM | OCC1CCN(c2nc(N3C[C@H]4CC[C@@H](C3)N4)c3ccc(-c4cc(O)cc5ccccc45)c(F)c3n2)C1 (stereo partly drawn) [P-0634, 4-(4-((1R,5S)-3,8-diazabicyclo[3.2.1]octan-3-yl)-8-fluoro-2-(3-(hydroxymethyl)pyrrolidin-1-yl)quinazolin-7-yl)naphthalen-2-ol]

From patent US20230081426A1, “COMPOUNDS AND METHODS FOR KRAS MODULATION AND INDICATIONS THEREFOR” (Plexxikon Inc., priority 2020, published 2023)
